ChEMBL document CHEMBL1159145 (Bioorg Med Chem Lett, 1992)

What was measured:
Neuromedin-K receptor = target: T1, Neuromedin-K receptor (Rattus norvegicus, UniProt P16177); assay: Ability to displace the binding of [3H]-Senktide to Tachykinin receptor 3 in rat cerebral cortex membranes was determined.; assay type: cell membranes, Membrane
T1 sequence (P16177 whole entry): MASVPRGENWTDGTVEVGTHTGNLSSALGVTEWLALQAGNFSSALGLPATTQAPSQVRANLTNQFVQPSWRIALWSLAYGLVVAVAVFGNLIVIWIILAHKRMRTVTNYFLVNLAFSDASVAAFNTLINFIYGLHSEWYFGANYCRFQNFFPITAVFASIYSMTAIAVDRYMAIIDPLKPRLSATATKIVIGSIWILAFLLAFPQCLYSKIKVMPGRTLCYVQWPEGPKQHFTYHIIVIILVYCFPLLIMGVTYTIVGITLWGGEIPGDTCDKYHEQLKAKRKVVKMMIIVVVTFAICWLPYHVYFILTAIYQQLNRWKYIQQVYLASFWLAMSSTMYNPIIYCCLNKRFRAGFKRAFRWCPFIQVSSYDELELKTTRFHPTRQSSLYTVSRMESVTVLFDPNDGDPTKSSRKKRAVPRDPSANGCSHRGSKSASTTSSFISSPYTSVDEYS

Substance-K receptor = target: T2, Substance-K receptor (Mesocricetus auratus, UniProt P51144); assay: Ability to displace the binding of [125I]iodohistidyl-NKA to Tachykinin receptor 2 in hamster urinary bladder membranes was determined.; assay type: cell membranes, Membrane
T2 sequence (P51144 whole entry): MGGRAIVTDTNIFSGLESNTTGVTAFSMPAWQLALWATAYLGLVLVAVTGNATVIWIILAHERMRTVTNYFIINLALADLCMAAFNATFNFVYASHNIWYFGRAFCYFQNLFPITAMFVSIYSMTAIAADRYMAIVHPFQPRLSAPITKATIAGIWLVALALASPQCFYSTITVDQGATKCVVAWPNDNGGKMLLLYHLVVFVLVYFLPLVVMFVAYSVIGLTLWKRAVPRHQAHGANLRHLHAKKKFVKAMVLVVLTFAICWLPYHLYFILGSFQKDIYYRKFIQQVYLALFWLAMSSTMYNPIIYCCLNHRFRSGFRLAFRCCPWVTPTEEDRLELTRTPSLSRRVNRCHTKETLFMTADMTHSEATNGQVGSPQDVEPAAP

Substance-P receptor [1] = target: T3, Substance-P receptor (Rattus norvegicus, UniProt P14600); assay: Binding affinity towards Tachykinin receptor 1 in rat cerebral cortex membranes was determined by using 125 [I]-BHSP as radioligand; assay type: cell membranes, Membrane
Substance-P receptor [2] = target: Substance-P receptor (Cavia porcellus, UniProt P30547); assay: Binding affinity towards Tachykinin receptor 1 binding in guinea pig cerebral cortex membranes was determined using [3H]SP as the radioligand; assay type: tissue-based, Membrane
Substance-P receptor [3] = target: T3, Substance-P receptor; assay: The binding affinity towards NK1 receptor in rat cerebral cortex membranes was determined by using 125 [I]-BHSP as radioligand; assay type: cell membranes, Membrane

Sequence of Substance-P receptor (Cavia porcellus, UniProt P30547) (P30547 whole entry): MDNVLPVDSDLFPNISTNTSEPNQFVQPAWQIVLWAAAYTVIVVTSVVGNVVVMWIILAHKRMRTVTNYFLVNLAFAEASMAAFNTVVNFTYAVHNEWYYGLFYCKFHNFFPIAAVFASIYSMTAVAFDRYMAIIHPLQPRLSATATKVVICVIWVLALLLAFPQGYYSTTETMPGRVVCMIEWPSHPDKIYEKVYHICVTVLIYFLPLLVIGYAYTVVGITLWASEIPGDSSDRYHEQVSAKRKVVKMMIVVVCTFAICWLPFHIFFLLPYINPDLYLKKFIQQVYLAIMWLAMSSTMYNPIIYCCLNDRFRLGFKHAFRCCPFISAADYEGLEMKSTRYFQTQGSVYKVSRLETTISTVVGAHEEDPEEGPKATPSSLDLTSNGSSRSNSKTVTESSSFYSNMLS
T3 sequence (P14600 whole entry): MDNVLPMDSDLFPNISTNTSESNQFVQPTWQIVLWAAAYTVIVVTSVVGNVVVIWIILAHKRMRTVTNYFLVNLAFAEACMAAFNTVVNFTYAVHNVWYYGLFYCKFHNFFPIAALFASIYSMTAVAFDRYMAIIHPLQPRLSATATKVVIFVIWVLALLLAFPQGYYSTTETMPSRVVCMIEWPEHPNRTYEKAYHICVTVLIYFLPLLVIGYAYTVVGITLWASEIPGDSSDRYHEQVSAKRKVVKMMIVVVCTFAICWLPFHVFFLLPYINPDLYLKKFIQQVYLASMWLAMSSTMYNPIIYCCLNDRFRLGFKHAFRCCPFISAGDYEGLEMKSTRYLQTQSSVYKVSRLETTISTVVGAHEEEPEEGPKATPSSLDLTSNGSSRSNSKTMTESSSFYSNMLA

| SMILES | IC50 (Neuromedin-K receptor) | IC50 (Substance-K receptor) | IC50 (Substance-P receptor [1]) | IC50 (Substance-P receptor [2]) | IC50 (Substance-P receptor [3]) |
| --- | --- | --- | --- | --- | --- |
| COc1ccccc1CN[C@@H]1C2CCN(CC2)[C@@H]1C(c1ccccc1)c1ccccc1 | ≥ 100 µM | ≥ 100 µM |  |  |  |
| COc1ccccc1CN[C@@H]1C2CCN(CC2)[C@@H]1Cc1ccccc1 | ≥ 100 µM | ≥ 100 µM | > 1000 nM | 1510 nM |  |
| N[C@@H]1C2CCN(CC2)[C@@H]1C(c1ccccc1)c1ccccc1 | ≥ 100 µM | ≥ 100 µM | > 10000 nM | > 10000 nM |  |
| FC(F)(F)c1ccccc1CN[C@@H]1C2CCN(CC2)[C@@H]1C(c1ccccc1)c1ccccc1 | ≥ 100 µM | ≥ 100 µM | 740 nM | 33 nM |  |
| CSCC[C@H](NC(=O)[C@H](CC(C)C)NC(=O)CNC(=O)[C@@H](NC(=O)[C@H](Cc1ccccc1)NC(=O)[C@H](CO)NC(=O)[C@H](CC(=O)O)NC(=O)[C@@H](NC(=O)[C@H](CCCCN)NC(=O)[C@@H](N)Cc1cnc[nH]1)[C@@H](C)O)C(C)C)C(N)=O [NEUROKININ A] |  |  |  | 3.5 nM |  |
| O=C(N[C@@H]1C2CCN(CC2)[C@@H]1C(c1ccccc1)c1ccccc1)c1ccccc1Cl | ≥ 100 µM | ≥ 100 µM | > 10000 nM | > 10000 nM |  |
| Clc1ccccc1CCCN[C@@H]1C2CCN(CC2)[C@@H]1C(c1ccccc1)c1ccccc1 | ≥ 100 µM | ≥ 100 µM |  | 1100 nM | > 10 µM |
| Fc1ccccc1CN[C@@H]1C2CCN(CC2)[C@@H]1C(c1ccccc1)c1ccccc1 | ≥ 100 µM | ≥ 100 µM | 990 nM | 37 nM |  |
| COc1ccccc1CN[C@H]1C2CCN(CC2)[C@@H]1C(c1ccccc1)c1ccccc1 | ≥ 100 µM | ≥ 100 µM |  |  |  |
| Clc1ccccc1CCN[C@@H]1C2CCN(CC2)[C@@H]1C(c1ccccc1)c1ccccc1 | ≥ 100 µM | ≥ 100 µM | 7200 nM | 160 nM |  |
| Clc1ccccc1CN[C@@H]1C2CCN(CC2)[C@@H]1C(c1ccccc1)c1ccccc1 | ≥ 100 µM | ≥ 100 µM | 110 nM | 8.5 nM |  |
| Cc1ccccc1CN[C@@H]1C2CCN(CC2)[C@@H]1C(c1ccccc1)c1ccccc1 | ≥ 100 µM | ≥ 100 µM | 700 nM | 227 nM |  |
| COc1ccccc1CO[C@@H]1C2CCN(CC2)[C@@H]1C(c1ccccc1)c1ccccc1 | ≥ 100 µM | ≥ 100 µM | ~10000 nM | 150 nM |  |
| CSCC[C@H](NC(=O)[C@H](CC(C)C)NC(=O)CNC(=O)[C@@H](NC(=O)[C@H](Cc1ccccc1)NC(=O)[C@H](Cc1ccccc1)NC(=O)[C@H](CC(=O)O)NC(=O)[C@H](Cc1c[nH]cn1)NC(=O)[C@H](CCSC)NC(=O)[C@@H](N)CC(=O)O)C(C)C)C(N)=O [NEUROKININ B] |  |  | 69 nM | 13 nM |  |
| c1ccc(CN[C@@H]2C3CCN(CC3)[C@@H]2C(c2ccccc2)c2ccccc2)cc1 | ≥ 100 µM | ≥ 100 µM | 2000 nM | 52 nM |  |
